Assay results as given in patent US9353107B2 (Aurigene Discovery Technologies Limited, priority 2012, dated 2016).

Target: T1, recombinant human ALK enzyme (ALK WT) (Homo sapiens, UniProt Q9UM73)
T1 construct: purchased Carna Biosciences 08-518
Experiment: ALK WT cell free enzymatic assay (TR-FRET)
Format: biochemical
Conditions: 1 μM ATP; for IC50: 10 point dose response; for inhibition at 0.1 µM: compound at 100 nM; for inhibition at 0.1 µM / inhibition at 1 µM: 30 min pre-incubation; for inhibition at 1 µM: compound at 1 μM
Outline: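 Read-out is TR-FRET (665 nm/615 nm ratio) using an Eu-labeled anti-phosphotyrosine antibody. Compound is pre-incubated 30 min with recombinant human ALK, then reacted 30 min with 1 μM ATP and 40 nM Poly GT substrate. Values are percent inhibition at 100 nM and 1 μM, plus IC50 from 10-point variable-slope regression.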

T1 sequence (Q9UM73 1058-1620 limits assumed): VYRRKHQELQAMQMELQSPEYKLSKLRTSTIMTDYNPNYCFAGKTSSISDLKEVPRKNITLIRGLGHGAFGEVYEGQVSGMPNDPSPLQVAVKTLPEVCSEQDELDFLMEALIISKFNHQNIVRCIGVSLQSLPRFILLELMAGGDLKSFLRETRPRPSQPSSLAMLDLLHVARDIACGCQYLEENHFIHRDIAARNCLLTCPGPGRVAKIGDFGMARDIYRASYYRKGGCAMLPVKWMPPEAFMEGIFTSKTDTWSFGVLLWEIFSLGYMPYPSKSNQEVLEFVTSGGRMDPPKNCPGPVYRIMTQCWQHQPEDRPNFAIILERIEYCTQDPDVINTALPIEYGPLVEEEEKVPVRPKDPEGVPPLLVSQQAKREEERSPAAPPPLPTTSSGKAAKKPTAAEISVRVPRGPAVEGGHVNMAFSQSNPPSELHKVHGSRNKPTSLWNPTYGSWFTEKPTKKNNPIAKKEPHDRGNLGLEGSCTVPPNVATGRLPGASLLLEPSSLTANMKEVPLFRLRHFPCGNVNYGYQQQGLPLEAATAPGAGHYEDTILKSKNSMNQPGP

IC50	inhibition at 0.1 µM	inhibition at 1 µM	SMILES
50 to 250 nM	60%	97%	C[C@H](O)CN1CCN(c2ccc(-c3cnc4[nH]cc(-c5cnn(Cc6cccc(F)c6)c5)c4c3)nc2)CC1 [Example 146, (S)-1-(4-(6-(3-(1-(3-fluorobenzyl)-1H-pyrazol-4-yl)-1H-pyrrolo[2,3-b]pyridin-5-yl)pyridin-3-yl)piperazin-1-yl)propan-2-ol]
< 50 nM	99%	100%	CN(C)CC(=O)N1CCN(c2ccc(-c3cnc4[nH]cc(-c5cnn(Cc6cccc(F)c6)c5)c4c3)cn2)CC1 [Example 147, 2-(dimethylamino)-1-(4-(5-(3-(1-(3-fluorobenzyl)-1H-pyrazol-4-yl)-1H-pyrrolo[2,3-b]pyridin-5-yl)pyridin-2-yl)piperazin-1-yl)ethanone]
< 50 nM	94%	100%	C[C@H](O)CN1CCN(c2ccc(-c3cnc4[nH]cc(-c5cnn(Cc6ccccc6)c5)c4c3)cn2)CC1 [Example 148, (S)-1-(4-(5-(3-(1-benzyl-1H-pyrazol-4-yl)-1H-pyrrolo[2,3-b]pyridin-5-yl)pyridin-2-yl)piperazin-1-yl)propan-2-ol]
< 50 nM	95%	100%	COCCN1CCN(c2ccc(-c3cnc4[nH]cc(-c5cnn(Cc6cccc(F)c6)c5)c4c3)cn2)CC1 [Example 149, 3-(1-(3-fluorobenzyl)-1H-pyrazol-4-yl)-5-(6-(4-(2-methoxyethyl)piperazin-1-yl)pyridin-3-yl)-1H-pyrrolo[2,3-b]pyridine]
< 50 nM	92%	100%	N#CCN1CCN(c2ccc(-c3cnc4[nH]cc(-c5cnn(Cc6cccc(F)c6)c5)c4c3)cn2)CC1 [Example 150, 2-(4-(5-(3-(1-(3-fluorobenzyl)-1H-pyrazol-4-yl)-1H-pyrrolo[2,3-b]pyridin-5-yl)pyridin-2-yl)piperazin-1-yl)acetonitrile]
< 50 nM	92%	97%	C[C@H](O)CN1CCN(c2ccc(-c3cnc4[nH]cc(-c5cnn(Cc6cccc(O)c6)c5)c4c3)cn2)CC1 [Example 151, (S)-3-((4-(5-(6-(4-(2-hydroxypropyl)piperazin-1-yl)pyridin-3-yl)-1H-pyrrolo[2,3-b]pyridin-3-yl)-1H-pyrazol-1-yl)methyl)phenol]
< 50 nM	80%	100%	CC(C)CN1CCN(c2ccc(-c3cnc4[nH]cc(-c5cnn(Cc6cccc(F)c6)c5)c4c3)cn2)CC1 [Example 152, 3-(1-(3-fluorobenzyl)-1H-pyrazol-4-yl)-5-(6-(4-isobutylpiperazin-1-yl)pyridin-3-yl)-1H-pyrrolo[2,3-b]pyridine]
< 50 nM	93%	100%	C[C@H](O)CN1CCN(c2ccc(-c3cnc4[nH]cc(-c5cnn(Cc6cccc(Cl)c6)c5)c4c3)cn2)CC1 [Example 153, (S)-1-(4-(5-(3-(1-(3-chlorobenzyl)-1H-pyrazol-4-yl)-1H-pyrrolo[2,3-b]pyridin-5-yl)pyridin-2-yl)piperazin-1-yl)propan-2-ol]
< 50 nM	99%	100%	O=C(CO)N1CCN(c2ccc(-c3cnc4[nH]cc(-c5cnn(Cc6cccc(F)c6)c5)c4c3)cn2)CC1 [Example 154, 1-(4-(5-(3-(1-(3-fluorobenzyl)-1H-pyrazol-4-yl)-1H-pyrrolo[2,3-b]pyridin-5-yl)pyridin-2-yl)piperazin-1-yl)-2-hydroxyethanone]
< 50 nM	86%	97%	OC1CCN(c2ccc(-c3cnc4[nH]cc(-c5cnn(Cc6cccc(F)c6)c5)c4c3)cn2)CC1 [Example 155, 1-(5-(3-(1-(3-fluorobenzyl)-1H-pyrazol-4-yl)-1H-pyrrolo[2,3-b]pyridin-5-yl)pyridin-2-yl)piperidin-4-ol]
< 50 nM	69%	91%	CCS(=O)(=O)N1CCN(c2ccc(-c3cnc4[nH]cc(-c5cnn(Cc6cccc(F)c6)c5)c4c3)cn2)CC1 [Example 156, 5-(6-(4-(ethylsulfonyl)piperazin-1-yl)pyridin-3-yl)-3-(1-(3-fluorobenzyl)-1H-pyrazol-4-yl)-1H-pyrrolo[2,3-b]pyridine]
< 50 nM	77%	93%	O=C(C1CC1)N1CCN(c2ccc(-c3cnc4[nH]cc(-c5cnn(Cc6cccc(F)c6)c5)c4c3)cn2)CC1 [Example 157, Cyclopropyl(4-(5-(3-(1-(3-fluorobenzyl)-1H-pyrazol-4-yl)-1H-pyrrolo[2,3-b]pyridin-5-yl)pyridin-2-yl)piperazin-1-yl)methanone]
< 50 nM	85%	94%	CS(=O)(=O)N1CCN(c2ccc(-c3cnc4[nH]cc(-c5cnn(Cc6cccc(F)c6)c5)c4c3)cn2)CC1 [Example 158, 3-(1-(3-fluorobenzyl)-1H-pyrazol-4-yl)-5-(6-(4-(methylsulfonyl)piperazin-1-yl)pyridin-3-yl)-1H-pyrrolo[2,3-b]pyridine]
< 50 nM	91%	100%	Fc1cccc(Cn2cc(-c3c[nH]c4ncc(-c5ccc(C6CCNCC6)nc5)cc34)cn2)c1 [Example 159, 3-(1-(3-fluorobenzyl)-1H-pyrazol-4-yl)-5-(6-(piperidin-4-yl)pyridin-3-yl)-1H-pyrrolo[2,3-b]pyridine]
50 to 250 nM	20%	84%	O=C(CC1CC1)N1CCN(c2ccc(-c3cnc4[nH]cc(-c5cnn(Cc6cccc(F)c6)c5)c4c3)cn2)CC1 [Example 160, 2-cyclopropyl-1-(4-(5-(3-(1-(3-fluorobenzyl)-1H-pyrazol-4-yl)-1H-pyrrolo[2,3-b]pyridin-5-yl)pyridin-2-yl)piperazin-1-yl)ethanone]
< 50 nM	86%	97%	Cc1nn(Cc2cccc(F)c2)c(C)c1-c1c[nH]c2ncc(-c3ccc(N4CCN(C[C@H](C)O)CC4)nc3)cc12 [Example 161, (2S)-1-(4-(5-(3-(1-(3-fluorobenzyl)-3,5-dimethyl-1H-pyrazol-4-yl)-1H-pyrrolo[2,3-b]pyridin-5-yl)pyridin-2-yl)piperazin-1-yl)propan-2-ol]
< 50 nM	75%	96%	Cc1c(-c2c[nH]c3ncc(-c4ccc(N5CCN(C[C@H](C)O)CC5)nc4)cc23)cnn1Cc1cccc(F)c1 [Example 162, (S)-1-(4-(5-(3-(1-(3-fluorobenzyl)-5-methyl-1H-pyrazol-4-yl)-1H-pyrrolo[2,3-b]pyridin-5-yl)pyridin-2-yl)piperazin-1-yl)propan-2-ol]
< 50 nM	88%	98%	C[C@H](O)CN1CCN(c2cnc(-c3cnc4[nH]cc(-c5cnn(Cc6cccc(F)c6)c5)c4c3)cn2)CC1 [Example 163, (S)-1-(4-(5-(3-(1-(3-fluorobenzyl)-1H-pyrazol-4-yl)-1H-pyrrolo[2,3-b]pyridin-5-yl)pyrazin-2-yl)piperazin-1-yl)propan-2-ol]
< 50 nM	96%	99%	C[C@H](O)CN1CCCN(c2ccc(-c3cnc4[nH]cc(-c5cnn(Cc6cccc(F)c6)c5)c4c3)cc2)CC1 [Example 164, (S)-1-(4-(4-(3-(1-(3-fluorobenzyl)-1H-pyrazol-4-yl)-1H-pyrrolo[2,3-b]pyridin-5-yl)phenyl)-1,4-diazepan-1-yl)propan-2-ol]
< 50 nM	99%	100%	Cc1c(-c2c[nH]c3ncc(-c4ccc(C5CCNCC5)c(F)c4)cc23)cnn1Cc1cccc(F)c1 [Example 165, 5-(3-fluoro-4-(piperidin-4-yl)phenyl)-3-(1-(3-fluorobenzyl)-5-methyl-1H-pyrazol-4-yl)-1H-pyrrolo[2,3-b]pyridine]
< 50 nM	90%	98%	Cc1nn(Cc2cccc(F)c2)cc1-c1c[nH]c2ncc(-c3ccc(C4CCNCC4)c(F)c3)cc12 [Example 166, 5-(3-fluoro-4-(piperidin-4-yl)phenyl)-3-(1-(3-fluorobenzyl)-3-methyl-1H-pyrazol-4-yl)-1H-pyrrolo[2,3-b]pyridine]
50 to 250 nM	69%	97%	Fc1cc(-c2cnc3[nH]cc(-c4cnn(CCc5ccccc5)c4)c3c2)ccc1C1CCNCC1 [Example 167, 5-(3-fluoro-4-(piperidin-4-yl)phenyl)-3-(1-phenethyl-1H-pyrazol-4-yl)-1H-pyrrolo[2,3-b]pyridine]
> 250 nM	23%	71%	Fc1cc(-c2cnc3[nH]cc(-c4ccn(CCc5ccccc5)n4)c3c2)ccc1C1CCNCC1 [Example 168, 5-(3-fluoro-4-(piperidin-4-yl)phenyl)-3-(1-phenethyl-1H-pyrazol-3-yl)-1H-pyrrolo[2,3-b]pyridine]
< 50 nM	99%	100%	Fc1cc(F)cc(Cn2cc(-c3c[nH]c4ncc(-c5ccc(C6CCNCC6)c(F)c5)cc34)cn2)c1 [Example 169, 3-(1-(3,5-difluorobenzyl)-1H-pyrazol-4-yl)-5-(3-fluoro-4-(piperidin-4-yl)phenyl)-1H-pyrrolo[2,3-b]pyridine]
< 50 nM	98%	100%	CN1CCC(c2ccc(-c3cnc4[nH]cc(-c5cnn(Cc6cccc(F)c6)c5)c4c3)cc2F)CC1 [Example 170, 5-(3-fluoro-4-(1-methylpiperidin-4-yl)phenyl)-3-(1-(3-fluorobenzyl)-1H-pyrazol-4-yl)-1H-pyrrolo[2,3-b]pyridine]
